Measured values as given in patent publication US8084602B2, “Porphyrin derivatives and their use in photodynamic therapy” (Destiny Pharma Limited, priority 2002, dated 2011).
Read-outs that look alike come from different tables or passages of the source.

Tests used:
[1] = tested on: bacterial cells compared to human skin cells; assay: Selectivity for bacteria compared to human skin cells; assay type: cell-based
Method: (§1) For the further investigation of the exemplary compounds (Table 2), the following protocol was adopted: • (i) Bacteria (S. aureus BAA-44 and E. coli 25922) were grown in brain heart infusion (BHI) broth until they reached the stationary phase of growth. • (ii) The cells were harvested by centrifugation (3000 g for 15 min) with a table centrifuge, washed with 10 mM PBS at pH 7.4 containing 2.7 mM KCl and 0.14 M NaCl and suspended in PBS at an optical density of 0.7 at 650 nm corresponding to 10^8-10^9 cells/ml. • (iii) The bacteria, at the desired cell density (˜10^8 cells/ml) were incubated for 5 min in the dark with various concentrations of the exemplary compounds. • (iv) At the end of the incubation period the cells were washed three times with PBS, suspended in PBS, transferred into a 96-well microtitre plate (200 μl/well) and illuminated for 15 min with the Waldmann light source (15.2 mW/cm^2; 13.7 J/cm^2). The cells were illuminated from the bottom of the plate laying it on the glass cover of the lamp. • (v) After illumination, cell survival was determined by plating serially diluted aliquots of treated and untreated (i.e. no exemplary compound or light present) cells onto brain heart agar (BHA) and counting the number of colonies after 18-24 h incubation at 37° C.
(§2) Test compounds were screened for toxicity against cultured human skin cells using normal human epidermal keratinocytes (NHEK) and normal human dermal fibroblasts (NHDF), purchased from CellSystems Biotechnologie GmbH, Germany.
The NHEK and NHDF cells were used between passages 3 and 10. The cells were seeded with 7.5 and/or 15×10^4 cells/well (microtitreplate) and allowed to attach overnight in an incubator (37° C., 5% CO2). After incubation with different concentrations of the selected photosensitisers, the cells were illuminated for fifteen minutes (Light source 236, Waldmann; 15.2 mW/cm^2, 13.7 J/cm^2) and then incubated for 24 hours in the dark.
(§3) Phototoxicity was tested by standard MTT-assay (Mossman et al., 1983, Immunological Methods 65:55-63). MTT is an indicator of metabolically active cells. Dependent on enzyme activity in mitochondria a colour reaction can be visualised, which can be measured by ELISA reader (540 nm). The cell viability data were normalised, i.e. the OD values of cells after PDT without photosensitisers were adjusted to one. Each experiment was repeated three times.

[2] = tested on: S. aureus ATCC BAA-44 (a methicillin resistant S. aureus); assay: Cell survival (colony forming unit) with or without illumination; assay type: cell-based, Staphylococcus aureus; settings: S. aureus
Method: (§4) The toxic effects of exemplary compounds of the invention against two bacterial strains, the Gram negative bacterium Escherichia coli (strain ATCC 25922) and the Gram positive bacterium Staphylococcus aureus (methicillin-resistant strain ATTC BAA-44), were evaluated by measuring the extent of growth inhibition (bacteriostatic effect) and growth […] (cytocidal effect) in the dark and upon light exposure. Initial compound screening was undertaken using white light [390-740 nm] (150 mW/cm^2) for various timepoints of a concentration of 3 μM (see Table 1). Further experiments were undertaken on those compounds identified from this initial screen using a light source emitting light at a wavelength between 417-420 nm at 15.2 mW/cm^2, 13.68 J/cm^2 (Waldmann Eclairage SA, France) (see Table 20.
as §1
the above colony forming unit (CFU) protocol was also used to investigate the photodynamic activity of very low concentrations of the compounds of the invention.

[3] = tested on: normal human dermal fibroblasts (NHDF); assay: Toxicity against human skin cells, MTT-assay; assay type: cell-based
Method: as §2
(§5) The NHEK and NHDF cells were used between passages 3 and 10. The cells were seeded with 7.5 and/or 15×10^4 cells/well (microtitreplate) and allowed to attach overnight in an incubator (37° C., 5% CO2). […]
as §3

[4] = tested on: normal human epidermal keratinocytes (NHEK); assay: Toxicity against human skin cells, MTT-assay; assay type: cell-based
Method: as §2, §5, §3

[5] = tested on: Escherichia coli (strain ATCC 25922); assay: Initial screening: growth inhibition after white light illumination; assay type: cell-based; settings: Escherichia coli
Method: as §4
(§6) The following protocol was used for the initial screening of the exemplary compounds (Table 1) (see Reddi et al., 2002, Photochem. Photobiol. 75(5):462-470): • (i) E. coli and S. aureus cells were grown overnight on brain heart infusion agar, resuspended in brain heart infusion broth, harvested by centrifugation (3000 g for 15 minutes) and washed once with phosphate buffered saline (PBS) at pH 7.4 consisting 2.7 mM KCl and 0.14 M NaCl. • (ii) The cells were then resuspended in PBS to an optical density at 650 nm of 0.7, which corresponds to a density of 10^8 to 10^9 cells/ml. • (iii) Next, the cells were incubated in PBS in the dark for 5 minutes with 3.0 μM of the compound to be tested. • (iv) After dark incubation, cells were illuminated with white light (wavelength: 390 to 740 nm) (150 mW/cm^2) for up to 30 minutes. During illumination, the cells were kept at 37° C. and magnetically stirred. • (v) Finally, treated and untreated (control) cells were diluted in brain heart infusion broth and maintained at […] while the absorbance of the suspension at 650 nm was monitored at predetermined time points for determining growth curves.
(§7) The percent of growth inhibition in the treated cells was calculated by the following equation: [1−(Ax−A0)/(Ac−A0)]×100 where Ax Ac are the absorbances measured after 3 hours incubation, for the treated and control cell suspensions, respectively, and A0 represents the initial absorbance.

[6] = tested on: Staphylococcus aureus (methicillin-resistant strain ATTC BAA-44); assay: as above; assay type: cell-based; settings: Staphylococcus aureus
Method: as §4, §6, §7

[7] = dark toxicity (no illumination), 10 μM
[8] = photodynamic activity, 0.1 μM, illumination 15 min
[9] = photodynamic activity, 1 μM, illumination 15 min
[10] = dark toxicity, 1 μM, no illumination
[11] = dark toxicity, 10 μM, no illumination
[12] = photodynamic activity (light toxicity), 0.01 μM, illumination 15 min
[13] = photodynamic activity (light toxicity), 0.1 μM, illumination 15 min
[14] = photodynamic activity (light toxicity), 1 μM, illumination 15 min
[15] = dark toxicity (no illumination), 1 μM
[16] = ATCC25922, 5 min, read-out: Growth inhibition (%), E. coli, 5 min incubation, illumination time 5 min
[17] = ATCC25922, read-out: Growth inhibition (%), E. coli, 5 min incubation, illumination time 0 min
[18] = ATCC25922, read-out: Growth inhibition (%), E. coli, 5 min incubation, illumination time 1 min
[19] = ATCC25922, read-out: Growth inhibition (%), E. coli, 5 min incubation, illumination time 10 min
[20] = ATCC25922, read-out: Growth inhibition (%), E. coli, 5 min incubation, illumination time 15 min
[21] = ATCC25922, read-out: Growth inhibition (%), E. coli, 5 min incubation, illumination time 30 min
[22] = BAA44, 5 min, read-out: Growth inhibition (%), S. aureus, 5 min incubation, illumination time 5 min
[23] = BAA44, read-out: Growth inhibition (%), S. aureus, 5 min incubation, illumination time 0 min
[24] = BAA44, read-out: Growth inhibition (%), S. aureus, 5 min incubation, illumination time 1 min
[25] = BAA44, read-out: Growth inhibition (%), S. aureus, 5 min incubation, illumination time 10 min
[26] = BAA44, read-out: Growth inhibition (%), S. aureus, 5 min incubation, illumination time 15 min
[27] = BAA44, read-out: Growth inhibition (%), S. aureus, 5 min incubation, illumination time 30 min

SMILES | Log reduction [2, 7] | Log reduction [2, 8] | Log reduction [2, 9] | Log reduction [2, 15] | inhibition at 3 µM [5, 16] | inhibition at 3 µM [5, 17] | inhibition at 3 µM [5, 18] | inhibition at 3 µM [5, 19] | inhibition at 3 µM [5, 20] | inhibition at 3 µM [5, 21] | inhibition at 3 µM [6, 22] | inhibition at 3 µM [6, 23] | inhibition at 3 µM [6, 24] | inhibition at 3 µM [6, 25] | inhibition at 3 µM [6, 26] | inhibition at 3 µM [6, 27] | also measured
C[N+](C)(C)CCCOc1ccc(-c2c3nc(c(-c4ccc(OCCC[N+](C)(C)C)cc4)c4ccc([nH]4)c(-c4ccc(OCCC[N+](C)(C)C)cc4)c4nc(c(-c5ccc(OCCC[N+](C)(C)C)cc5)c5ccc2[nH]5)C=C4)C=C3)cc1.[Cl-].[Cl-].[Cl-].[Cl-] [Compound 1, 5,10,15,20-tetrakis-[4-(3-Trimethylammonio-propyloxy)-phenyl]-porphyrin tetrachloride, reference compound] | <1 (<10^−1) | <1 (<10^−1) | >6 (>10^−6) | – | – | – | – | – | – | – | – | – | – | – | – | – | toxicity to bacterial cells compared to human cells [1]: equal toxicity to bacterial and human cells; Survival [3, 10]: 100%; Survival [3, 11]: 92%; Survival [3, 12]: 100%; Survival [3, 13]: 39%; Survival [3, 14]: 2%; Survival [4, 10]: 100%; Survival [4, 11]: 83%; Survival [4, 12]: 94%; Survival [4, 13]: 52%; Survival [4, 14]: 0.4%
CCCCCCCCCCCOc1ccc(-c2c3nc(c(-c4ccc(OCCC[N+](C)(C)C)cc4)c4ccc([nH]4)c(-c4ccc(OCCC[N+](C)(C)C)cc4)c4nc(c(-c5ccc(OCCC[N+](C)(C)C)cc5)c5ccc2[nH]5)C=C4)C=C3)cc1.[Cl-].[Cl-].[Cl-] [Compound 3, 5,10,15-tris-[4-(3-Trimethylammonio-propyloxy)-phenyl]-20-(4-undecyloxy-phenyl)-porphyrin trichloride, reference compound] | >3 (>10^−3) | – | >3 (>10^−3) | <1 (<10^−1) | 99% | 5% | 68% | 100% | 99% | 99% | 100% | 21% | 83% | 100% | 100% | 100% | Log reduction ([2]; photodynamic activity, 10 μM, illumination 15 min): >6 (>10^−6)
CCCCCCCCCCCc1c2nc(cc3ccc([nH]3)c(-c3cc(OCCC[N+](C)(C)C)cc(OCCC[N+](C)(C)C)c3)c3nc(cc4ccc1[nH]4)C=C3)C=C2.[Cl-].[Cl-] [Compound 6, 5-[3,5-bis-(3-Trimethylammonio-propyloxy)-phenyl]-15-undecyl-porphyrin dichloride] | 2 (10^−2) | 3 (10^−3) | 6 (10^−6) | 1 (<10^−1) | – | – | – | – | – | – | – | – | – | – | – | – | inhibition at 3 µM ([5]; ATCC25922, 5 min, E. coli, 5 min incubation, illumination time 5 min, read-out: Growth inhibition (%)): 30%; inhibition at 3 µM ([5]; ATCC25922, E. coli, 5 min incubation, illumination time 0 min, read-out: Growth inhibition (%)): 9%; inhibition at 3 µM ([5]; ATCC25922, E. coli, 5 min incubation, illumination time 1 min, read-out: Growth inhibition (%)): 17%; inhibition at 3 µM ([5]; ATCC25922, E. coli, 5 min incubation, illumination time 10 min, read-out: Growth inhibition (%)): 54%; inhibition at 3 µM ([5]; ATCC25922, E. coli, 5 min incubation, illumination time 15 min, read-out: Growth inhibition (%)): 69%; inhibition at 3 µM ([5]; ATCC25922, E. coli, 5 min incubation, illumination time 30 min, read-out: Growth inhibition (%)): 93%; inhibition at 3 µM ([6]; BAA44, 5 min, S. aureus, 5 min incubation, illumination time 5 min, read-out: Growth inhibition (%)): 100%; inhibition at 3 µM ([6]; BAA44, S. aureus, 5 min incubation, illumination time 0 min, read-out: Growth inhibition (%)): 29%; inhibition at 3 µM ([6]; BAA44, S. aureus, 5 min incubation, illumination time 1 min, read-out: Growth inhibition (%)): 100%; inhibition at 3 µM ([6]; BAA44, S. aureus, 5 min incubation, illumination time 10 min, read-out: Growth inhibition (%)): 100%; inhibition at 3 µM ([6]; BAA44, S. aureus, 5 min incubation, illumination time 15 min, read-out: Growth inhibition (%)): 100%; inhibition at 3 µM ([6]; BAA44, S. aureus, 5 min incubation, illumination time 30 min, read-out: Growth inhibition (%)): 100%
CCCCCCCCCCCOc1ccc(-c2c3nc(c(-c4ccc(OCCC[N+](CC)(CC)CC)cc4)c4ccc([nH]4)c(-c4ccc(OCCC[N+](CC)(CC)CC)cc4)c4nc(c(-c5ccc(OCCC[N+](CC)(CC)CC)cc5)c5ccc2[nH]5)C=C4)C=C3)cc1 [Compound 16, 5,10,15-tris-[4-(3-Triethylammonio-propyloxy)-phenyl]-20-(4-undecyloxy-phenyl)-porphyrin trichloride, reference compound] | – | – | – | – | 92% | 8% | 34% | 99% | 100% | 100% | 100% | 12% | 97% | 100% | 100% | 100% | –
